From ChEMBL document CHEMBL1781952, “Hippolides A-H, acyclic manoalide derivatives from the marine sponge Hippospongia lachne” (J Nat Prod, 2011)

Experiments:
[1] = molecular target: Protein kinase C alpha type (Homo sapiens, UniProt P17252); experiment: Binding affinity at PKCalpha after 1 hr by luminescent kinase assay
[2] = molecular target: Protein kinase C gamma type (Homo sapiens, UniProt P05129); experiment: Binding affinity at PKCgamma after 1 hr by luminescent kinase assay
A549 = experiment: Cytotoxicity against human A549 cells after 48 hrs by MTT assay; format: functional, cell-based; conditions: A549, 48 h
[3] = molecular target: T1, Tyrosine-protein phosphatase non-receptor type 1 (Homo sapiens, UniProt P18031); experiment: Inhibition of recombinant PTP1B catalytic domain using pNPP as substrate assessed as pNP release
T1 sequence (P18031 whole entry): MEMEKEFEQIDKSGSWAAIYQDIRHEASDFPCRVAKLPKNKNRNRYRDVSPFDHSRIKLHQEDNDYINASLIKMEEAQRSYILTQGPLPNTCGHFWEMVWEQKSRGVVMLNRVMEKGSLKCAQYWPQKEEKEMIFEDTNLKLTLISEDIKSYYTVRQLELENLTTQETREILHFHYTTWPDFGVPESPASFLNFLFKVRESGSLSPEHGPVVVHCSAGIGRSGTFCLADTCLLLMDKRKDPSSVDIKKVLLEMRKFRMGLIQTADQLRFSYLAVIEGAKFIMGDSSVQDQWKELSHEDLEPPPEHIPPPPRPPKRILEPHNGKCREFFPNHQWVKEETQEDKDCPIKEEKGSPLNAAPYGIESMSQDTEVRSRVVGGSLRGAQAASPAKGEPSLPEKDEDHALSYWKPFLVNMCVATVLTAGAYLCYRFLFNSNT

HeLa = experiment: Cytotoxicity against human HeLa cells after 48 hrs by MTT assay; format: functional, cell-based
HCT-116 = experiment: Cytotoxicity against human HCT116 cells after 48 hrs by MTT assay; format: functional, cell-based; conditions: HCT-116, 48 h

Structure (SMILES)	IC50 [1] [µM]	IC50 [2] [µM]	IC50 (A549) [µM]	IC50 [3] [µM]	IC50 (HeLa) [µM]	IC50 (HCT-116) [µM]
CC(C)=CCC/C(C)=C/CC/C(C)=C/CC/C(=C\C[C@H]1OC(=O)C=C1CO)CO [HIPPOLIDE E]	40.3	–	–	–	–	–
CC(C)=CCC/C(C)=C/CC/C(C)=C/CCC1=CC[C@H]([C@@H]2CC(=O)NC2=O)O[C@@H]1O [HIPPOLIDE A]	–	62	0.0522	23.8	0.048	9.78
CO[C@H]1O[C@@H]([C@@H]2CC(=O)NC2=O)CC=C1CC/C=C(\C)CC/C=C(\C)CCC=C(C)C [HIPPOLIDE B]	–	–	–	39.7	–	35.1
